1 molecule from patent US12545668B2, “Cyclic amine derivative as agent for promoting advillin function, and novel cyclic amine derivative and pharmaceutical use thereof” (Toray Industries, Inc., priority 2018, dated 2026) can be followed below.

SMILES strings stand for the structures.

The subject of experiment [1] is primary cultured cells of rat dorsal root ganglion. The experiment is described as follows: Axon (neurite) extension in primary cultured cells of rat dorsal root ganglion with oxaliplatin-induced axonal injury. The conditions noted are these: 7 days. It is filed as cell-based. An excerpt:
The effect of the cyclic amine derivative (I) or a pharmacologically acceptable salt thereof on neurite extension in primary cultured cells of rat dorsal root ganglion was examined.
Male SD rats (manufactured by Charles River Laboratories Japan, Inc.) of 4 to 7 weeks old were used. Each rat was anesthetized by intraperitoneally administering urethane. After confirming that the rat was anesthetized, the rat was rapidly euthanized by exsanguination from the abdominal aorta. After incision of the dorsal part, the spinal column was excised and cooled on ice. The dorsal side of the spinal column was cut off, and the spinal cord was removed from the ventral side of the spinal column to expose the dorsal root ganglia on the ventral side of the spinal column. The dorsal root ganglia (L3 to 6, right and left) were excised with tweezers, and dipped in ice-cold Leibovitz's L-15 medium (manufactured by Thermo Fisher Scientific), and the bundles of nerve fibers were removed under a stereoscopic microscope. The dorsal root ganglia from which the bundles of nerve fibers had been removed were made fine slits with ophthalmic scissors to be used as dorsal root ganglion pieces.
The dorsal root ganglion pieces were dipped in about 3 mL of a solution of collagenase A (manufactured by Roche Molecular Systems, Inc.), followed by incubation at 37° C. for 20 minutes. After the incubation, the resultant was centrifuged at 200×g at 25° C. for 5 minutes to remove a collagenase A solution corresponding to the supernatant. About 1 mL of a solution of trypsin was added thereto, followed by incubation at 37° C. for 5 minutes. Subsequently, about 3 mL of DMEM (manufactured by Thermo Fisher Scientific K.K.) containing 10% fetal bovine serum was added to the resultant, the resultant centrifuged at 200×g at room temperature for 5 minutes, and then the supernatant removed. […]

The test system of experiment [2] is sciatic nerve of a rat spinal nerve ligation model. Put plainly: Actin filament/actin monomer ratio in the sciatic nerve of rat spinal nerve ligation model. Type of experiment: in vivo. The source says: The effect of the cyclic amine derivative (I) or a pharmacologically acceptable salt thereof on a ratio between the amount of actin filaments and the amount of actin monomers in the sciatic nerve of a rat spinal nerve ligation model was examined.
Male SD rats (manufactured by Charles River Laboratories Japan, Inc.) of 6 weeks old were used. Each rat spinal nerve ligation model was produced by resecting the spine vertebral arch by incision of the right lower back under isoflurane inhalation anesthesia, completely ligating L5 and L6 nerve roots of the spinal nerve, and then suturing the muscular layer and the skin. As a negative control (sham-operation group), the right L5 and L6 nerves were exposed, and then the muscular layer and the skin were sutured similarly without ligation. One week after the nerve ligation, the rats were used to perform the following experiment. […]
For quantitative determination of actin filaments and actin monomers, G-actin/F-actin in vivo assay kit (manufactured by Cytoskeleton Inc.) was used. […] The amount of actin in each of the actin monomer sample and the actin filament sample was measured by Western blotting. […] Luminescence intensity of a band corresponding to actin was quantitatively determined using Image Lab software (manufactured by Bio-Rad). […]

As to `CN(C)C1CCN(C(=O)C[C@H](O)c2nccn2C)CC1` [Example 7, (S)-1-(4-(dimethylamino)piperidin-1-yl)-3-hydroxy-3-(1-methyl-1H-imidazol-2-yl)propan-1-one], the “length of a neurite compared to the oxaliplatin alone treated group” value in experiment [1] (100 μM with oxaliplatin 3 μM, FIG. 4, FIG. 5, p<0.025 Williams) was “significantly increased”; in experiment [1] (10, 30 or 100 μM with oxaliplatin 3 μM, FIG. 5) it was “found to increase”. For the same molecule, the “actin filament/actin monomer ratio compared to the distilled water administration group” value in experiment [2] (oral 60 mg/kg once a day for 2 days, sciatic nerve, p<0.025 Williams) is “significantly reduced”. Moreover, the “actin filament/actin monomer ratio” value in experiment [2] (oral 6, 20 and 60 mg/kg once a day for 2 days, sciatic nerve 3 hours after last administration, FIG. 3b) is reported as “reduced as the dose of the compound of Example 7 was increased”.
